Key:
[1] = system: interleukin-10 (IL-10); assay: Induction of immune-dampening cytokines; details: unlike fully agonistic antibodies such as antibody 24.4.1
[2] = target: murine CD40 (Mus musculus, UniProt P27512); assay: Recognition of murine CD40; assay type: binding
[3] = system: FcγIII receptors; details: compared to the fucosylated parent antibody dacetuzumab; cited from earlier work
[4] = system: CD40 signaling pathway; details: compared to the parent antibody dacetuzumab; cited from earlier work

murine CD40, sequence (P27512 20-289): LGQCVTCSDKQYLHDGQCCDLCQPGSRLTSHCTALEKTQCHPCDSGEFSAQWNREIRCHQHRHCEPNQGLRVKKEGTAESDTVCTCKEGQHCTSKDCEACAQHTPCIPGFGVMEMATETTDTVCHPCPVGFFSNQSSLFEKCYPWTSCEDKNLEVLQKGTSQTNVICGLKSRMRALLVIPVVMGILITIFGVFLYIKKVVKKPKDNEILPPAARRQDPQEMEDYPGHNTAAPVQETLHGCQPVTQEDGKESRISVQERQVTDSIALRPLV

For “SEA-CD40: non-fucosylated humanized S2C6 anti-CD40 antibody; heavy chain SEQ ID NO: 1, light chain SEQ ID NO: 2; parent antibody dacetuzumab”, the “production of immune-dampening cytokines such as interleukin-10 (IL-10)” value [1] is listed as “does not induce production”, the “recognition of murine CD40” value [2] is listed as “does not recognize” and the “binding to FcγIII receptors” value [3] is listed as “enhanced binding”. For the same substance, the “ability to activate the CD40 signaling pathway in immune cells” value [4] was “enhanced ability to activate”.

— patent US20250009877A1, “TREATMENT FOR CANCER” (Seagen Inc., priority 2021, published 2025)
